Data taken from ChEMBL document CHEMBL1201862, “PubChem BioAssay data set” (2004).
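Five concentrations, 48 hours, 96-well plates. GI50 marks 50% less growth.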 The source made the active and inactive calls. No stated cut-off is given here; in the data, active = GI50 up to about 1.1 µM and inactive = higher.

Tests used:
Assay in all cases: growth of human tumour cells (NCI), 48 h
786-0 = tested on: 786-0
BT-549 = tested on: BT-549
CAKI-1 = tested on: CAKI-1
COLO 205 = tested on: COLO 205
DU-145 = tested on: DU-145
HCT-116 = tested on: HCT-116
HT-29 = tested on: HT-29
Hs-578T = tested on: Hs-578T
MDA-MB-435 = tested on: MDA-MB-435
Malme-3M = tested on: Malme-3M
NCI-H23 = tested on: NCI-H23
NCI-H522 = tested on: NCI-H522
OVCAR-3 = tested on: OVCAR-3
RPMI-8226 = tested on: RPMI-8226
SK-MEL-28 = tested on: SK-MEL-28
SNB-19 = tested on: SNB-19
TK-10 = tested on: TK-10
T47D = tested on: T47D
HOP-92 = tested on: HOP-92

Measured: GI50

COc1ccc(-c2csc(Cc3nc4ccccc4c(=O)n3-c3ccc(Cl)cc3)n2)cc1
inactive: 786-0 28.6 µM | BT-549 45 µM | CAKI-1 > 100 µM | COLO 205 34.9 µM | DU-145 84.5 µM | HCT-116 19.8 µM | HT-29 35.6 µM | Hs-578T > 100 µM | MDA-MB-435 28.5 µM | Malme-3M > 100 µM | NCI-H23 28.8 µM | NCI-H522 45.7 µM | OVCAR-3 40.5 µM | RPMI-8226 15.9 µM | SK-MEL-28 27 µM | SNB-19 24.4 µM | TK-10 > 100 µM

O=C1C=CC(=O)c2c1ccc1c3ccccc3n(CCCCCCCCn3c4ccccc4c4ccc5c(c43)C(=O)C=CC5=O)c21
inactive: 786-0 > 100 µM | BT-549 > 100 µM | CAKI-1 > 100 µM | COLO 205 > 100 µM | DU-145 > 100 µM | HCT-116 > 100 µM | HT-29 > 100 µM | Hs-578T 30.8 µM | MDA-MB-435 > 100 µM | Malme-3M > 100 µM | NCI-H23 > 100 µM | NCI-H522 > 100 µM | OVCAR-3 > 100 µM | RPMI-8226 > 100 µM | SK-MEL-28 > 100 µM | SNB-19 > 100 µM | T47D > 100 µM | TK-10 > 100 µM

C=CCN1C[C@H](C)N([C@@H](c2ccc(C(=O)N3CCCCC3)cc2)c2cccc(OC)c2)C[C@H]1C
inactive: 786-0 37.9 µM | BT-549 32.9 µM | CAKI-1 66.4 µM | COLO 205 16.6 µM | DU-145 80.5 µM | HCT-116 28.6 µM | HOP-92 98.6 µM | HT-29 24.7 µM | Hs-578T 86.7 µM | MDA-MB-435 35 µM | Malme-3M 18.5 µM | NCI-H23 42.4 µM | NCI-H522 21.7 µM | OVCAR-3 49.2 µM | SNB-19 50.5 µM | T47D 24.5 µM | TK-10 40 µM

CC1=N[C@@](C)(C2CC3C=CC2C3=O)COC1=O (some centres undefined)
inactive: 786-0 > 100 µM | BT-549 > 100 µM | CAKI-1 > 100 µM | COLO 205 > 100 µM | DU-145 > 100 µM | HCT-116 > 100 µM | HOP-92 > 100 µM | HT-29 > 100 µM | Hs-578T > 100 µM | MDA-MB-435 > 100 µM | Malme-3M > 100 µM | NCI-H23 > 100 µM | NCI-H522 > 100 µM | OVCAR-3 > 100 µM | SK-MEL-28 > 100 µM | SNB-19 > 100 µM | T47D > 100 µM | TK-10 > 100 µM

C[C@H]1O[C@@H](C(C)(C)C)OC(=O)[C@@H]1C(OC(=O)c1ccccc1)c1cccc2ccccc12 (some centres undefined)
inactive: 786-0 > 100 µM | BT-549 > 100 µM | CAKI-1 > 100 µM | COLO 205 > 100 µM | HCT-116 > 100 µM | HT-29 > 100 µM | Hs-578T 40.7 µM | MDA-MB-435 > 100 µM | Malme-3M > 100 µM | NCI-H23 > 100 µM | NCI-H522 > 100 µM | OVCAR-3 > 100 µM | RPMI-8226 > 100 µM | SK-MEL-28 > 100 µM | SNB-19 > 100 µM | T47D 64.1 µM | TK-10 > 100 µM

O=C1C=C(c2c(-c3ccccc3)[nH]c3ccccc23)C(=O)N1c1ccccc1
inactive: 786-0 8.65 µM | BT-549 6.73 µM | CAKI-1 5.53 µM | COLO 205 8.3 µM | DU-145 3.52 µM | HCT-116 6.49 µM | HOP-92 9.14 µM | HT-29 7.18 µM | Hs-578T 4.15 µM | MDA-MB-435 4.02 µM | Malme-3M 11.5 µM | NCI-H23 10.7 µM | OVCAR-3 4.41 µM | RPMI-8226 5.6 µM | SK-MEL-28 13.3 µM | SNB-19 21.9 µM | TK-10 12.7 µM

CC(C)CCC[C@@H](C)[C@H]1CCC2C3CC=C4C[C@@H](Oc5c6ccccc6nc6ccccc56)CCC4C3CCC21 (some centres undefined)
inactive: 786-0 > 50 µM | BT-549 > 50 µM | CAKI-1 > 50 µM | COLO 205 > 50 µM | DU-145 > 50 µM | HCT-116 > 50 µM | HOP-92 > 50 µM | HT-29 > 50 µM | Hs-578T > 50 µM | MDA-MB-435 > 50 µM | Malme-3M > 50 µM | NCI-H23 > 50 µM | NCI-H522 36.4 µM | OVCAR-3 > 50 µM | SK-MEL-28 > 50 µM | SNB-19 > 50 µM | T47D > 50 µM | TK-10 > 50 µM

Cc1cnc2sn(-c3ccc(Oc4ccccc4)cc3)c(=O)c2c1
inactive: 786-0 10.7 µM | BT-549 23.8 µM | COLO 205 20.5 µM | DU-145 14.1 µM | HCT-116 14 µM | HT-29 18.2 µM | Hs-578T 21.1 µM | MDA-MB-435 13.3 µM | Malme-3M 1.7 µM | NCI-H23 25.4 µM | NCI-H522 5.58 µM | OVCAR-3 6.11 µM | RPMI-8226 9.62 µM | SK-MEL-28 10.3 µM | SNB-19 19.7 µM | T47D 14 µM | TK-10 17.7 µM
